This is an account of results in US20260293897A1, “COMPOUND CONTAINING FIVE-MEMBERED HETEROCYCLE, PREPARATION METHOD THEREFOR, AND APPLICATION THEREOF” (QINGDAO KANGQIAO PESTICIDES AND CHEMICALS GROUP CO., LTD., priority 2022, published 2026).

Common to all, as to assay type: in vivo
Data set [1] concerns Frankliniella occidentalis larvae. Nature of the data set: Frankliniella occidentalis Larva Controlling Activity Test. As to conditions: 72 h; for mortality at 3.25 ppm: read-out: mortality for Frankliniella occidentalis larvae; for mortality at 1.56 ppm / mortality at 3.125 ppm / mortality at 6.25 ppm: in Brassica oleracea. The procedure: Frankliniella occidentalis Larva Controlling Activity Test:
The test compound is dissolved in acetone and diluted to the desired concentration. 0.5 mL of the prepared acetone medicinal liquid is added into a glass tube (the inner diameter is 1 cm, the length is 10 cm), and the glass tube is repeatedly rolled on a flat table until the acetone solution is completely volatilized. Soaking cabbage leaves in the liquid medicine with the corresponding concentration for 15 s, drying, placing in a glass tube, inoculating 10-20 heads of Frankliniella occidentalis larvae in the glass tube, repeating the treatment for three times, observing in a constant-temperature observation room after the treatment, investigating the number of live insects after 72 hours, and calculating the mortality.

Data set [2] relates to Resistant Plutella xylostella. In words: Resistant Plutella xylostella Controlling Activity Test. Conditions: for Mortality (%): 0.2 ppm, 2nd instar, resistant, radish leaves dipped 10 s, 72 h (three days); for mortality at 0.2 ppm / mortality at 1 ppm / mortality at 5 ppm: Plutella xylostella, in Raphanus sativus, 72 h. The procedure: Resistant Plutella xylostella Controlling Activity Test:
Leaf dipping method was used, the appropriate amount of radish leaves were dipped into the drug for 10 s, placed in a plastic petri dish padded with filter paper and dried naturally, each dish was connected with 10 heads of 2nd instar small cabbage moths, placed in the observation room at 24° C. and light (16/8 h). 72 h later observation was made, and the body of the insect was touched lightly with a brush and no reaction was regarded as a dead insect, which was repeated for three times, and a blank control was also set up without any additional agent.

The next data set concerns Spodoptera frugiperda. In words: Spodoptera frugiperda Indoor Toxicity Determination Test. As to conditions: in Zea mays, read-out: mortality against Spodoptera frugiperda. From the text: Spodoptera frugiperda Indoor Toxicity Determination Test
Test targets: Spodoptera frugiperda, 3rd instar larvae, a sensitive strain raised indoors.
The test method comprises the following steps: firstly, selecting fresh corn leaves cultivated in a greenhouse, cutting the fresh corn leaves into 5 cm-long leaf segments, sequentially arranging the test design from low dose to high dose, soaking the fresh corn leaves in prepared liquid medicine for 10 s, naturally drying the fresh corn leaves in the shade, then placing the dried corn leaves in a culture dish with filter paper and the diameter of 9 cm, inoculating regular healthy test insects, n=10, repeating the treatment for 3 times, and additionally arranging blank control.

Another data set relates to Tetranychus cinnabarinus. In words: Tetranychus cinnabarinus Controlling Activity Test. Conditions: 72 h; for mortality at 1.6 ppm: read-out: mortality against Tetranychus cinnabarinus; for mortality at 1.56 ppm / mortality at 3.125 ppm / mortality at 6.25 ppm / mortality at 12.5 ppm: in Phaseolus vulgaris. On the procedure: Tetranychus cinnabarinus Controlling Activity Test:
The test compound was dissolved in acetone and diluted to the desired concentration with 0.1 wt % aqueous tween 80, the acetone content not exceeding 5 wt %.
One real leaf was removed from kidney bean seedlings grown to two real leaves, inoculating Tetranychus cinnabarinus, investigating the base number, performing whole plant spraying treatment by using a handheld sprayer, repeating the treatment for 3 times (the application amount of the preparation is about 0.5 g), observing in a constant-temperature observation room after the treatment, investigating the number of live mites after 72 hours, and calculating the mortality. The number of Tetranychus cinnabarinus inoculated in each time is 35-100.
Mortality%=(number of inoculated insects−number of live insects after drug administration)÷number of inoculated insects×100%

In the next data set the test system is Phyllotreta striolata. Nature of the data set: Phyllotreta striolata Controlling Activity Test. As to conditions: 72 h, read-out: mortality against Phyllotreta striolata. The procedure: Phyllotreta striolata Controlling Activity Test:
Preparing liquid medicine according to the experimental design concentration, selecting fresh cabbage leaves, soaking the cabbage leaves for 15 s, taking out, airing, placing in a glass tube, connecting 20-25 heads of the Flea beetles adults with each tube, repeating the treatment for 3 times, investigating the death condition of the Phyllotreta striolata after 72 hours, and calculating and correcting the death rate.

In data set [3] the test system is Sensitive Plutella xylostella. Nature of the data set: Sensitive Plutella xylostella Controlling Activity Test. An excerpt: Sensitive Plutella xylostella Controlling Activity Test:
Test targets: Plutella xylostella, 3 rd instar larvae, a sensitive strain raised indoors.
The test method comprises the following steps: selecting fresh cabbage leaves cultivated in a greenhouse, making the cabbage leaves into round with the diameter of 3 cm by using a puncher, putting the circular blade into prepared liquid medicine to be soaked for 10 s according to the sequence from low dose to high dose of experimental design, naturally drying the cabbage leaves in the shade, putting the soaked cabbage leaves into a culture dish with filter paper and the diameter of 9 cm, inoculating regular healthy test insects, n=10, repeating the treatment for 3 times, and additionally setting blank control.

The mark [4] stands for this setting: read-out: mortality against Plutella xylostella.

Like-named read-outs stand apart in the source and are kept apart here.

With `Cc1cc(C2=NOC(c3cc(Cl)c(F)c(Cl)c3)(C(F)(F)F)C2)ccc1C(=O)NC1CCS(=O)(=O)C1.I` (stereo not drawn) [Compound I-1, 4-(5-(3,5-dichloro-4-fluorophenyl)-5-(trifluoromethyl)-4,5-dihydroisoxazol-3-yl)-N-(1,1-dioxotetrahydrothiophen-3-yl)-2-methylbenzamide], in data set [1], the mortality at 3.25 ppm was over 90%, the mortality at 1.56 ppm was 100%, the mortality at 3.125 ppm came out at 100% and the mortality at 6.25 ppm came out at 100%. Further, in data set [2], the “Mortality (%)” value is given as 100%, the mortality at 0.2 ppm amounted to 100%, the mortality at 1 ppm was determined as 100% and the mortality at 5 ppm turned out to be 100%. Besides, the mortality at 1 ppm in the data set on Spodoptera frugiperda was over 90%. Also, in the data set with Tetranychus cinnabarinus, the mortality at 1.6 ppm is over 90%, the mortality at 1.56 ppm turned out to be 94.3%, the mortality at 3.125 ppm was found to be 100% and the mortality at 6.25 ppm was 100%. In addition, in the data set with Tetranychus cinnabarinus, the mortality at 12.5 ppm worked out at 100%. In addition, the mortality at 50 ppm in the data set on Phyllotreta striolata was over 90%. In data set [3] (in Brassica oleracea, 72 h), the mortality at 0.333 ppm was 80% and the mortality at 1 ppm was 100%. Moreover, the mortality at 1 ppm in data set [3] (setting [4]) is over 90%.

Turning to `Cc1cc(C2=NOC(c3cc(Cl)c(F)c(Cl)c3)(C(F)(F)F)C2)ccc1C(=O)N[C@@H]1CCS(=O)(=O)C1` (stereo partly drawn) [Compound I-14, 4-(5-(3,5-dichloro-4-fluorophenyl)-5-(trifluoromethyl)-4,5-dihydroisoxazol-3-yl)-N—((R)-1,1-dioxotetrahydrothiophen-3-yl)-2-methylbenzamide], the mortality at 3.25 ppm in data set [1] is over 90%. Further, the mortality at 1 ppm in the data set with Spodoptera frugiperda is over 90%. For the same compound, in the data set on Tetranychus cinnabarinus, the mortality at 1.6 ppm is over 90%, the mortality at 1.56 ppm came out at 100%, the mortality at 3.125 ppm came to 100% and the mortality at 6.25 ppm is 100%. The mortality at 12.5 ppm with Tetranychus cinnabarinus came out at 100%. Moreover, the mortality at 50 ppm in the data set with Phyllotreta striolata is over 90%. In addition, in data set [3] (setting [4]), the mortality at 1 ppm was over 90%.

`Cc1cc(C2=NOC(c3cc(C(F)(F)F)cc(C(F)(F)F)c3)(C(F)(F)F)C2)ccc1C(=O)NC1CCS(=O)(=O)C1` (stereo not drawn) [Compound I-25, 4-(5-(3,5-bis(trifluoromethyl)phenyl)-5-(trifluoromethyl ester)-4,5-dihydroisoxazol-3-yl)-N-(1,1-dioxotetrahydrothiophen-3-yl)-2-methylbenzamide]: in data set [1], the mortality at 3.25 ppm is over 90%, the mortality at 1.56 ppm was found to be 100%, the mortality at 3.125 ppm amounted to 100% and the mortality at 6.25 ppm turned out to be 100%. Further, in data set [2], the “Mortality (%)” value was 100%, the mortality at 0.2 ppm is 100%, the mortality at 1 ppm came to 100% and the mortality at 5 ppm was found to be 100%. Also, the mortality at 1 ppm in the data set on Spodoptera frugiperda was over 90%. Also, in the data set with Tetranychus cinnabarinus, the mortality at 1.6 ppm is over 90%, the mortality at 1.56 ppm is 90.3%, the mortality at 3.125 ppm was found to be 99.3% and the mortality at 6.25 ppm was found to be 100%. Moreover, the mortality at 12.5 ppm in the data set on Tetranychus cinnabarinus came to 100%. Moreover, the mortality at 50 ppm in the data set with Phyllotreta striolata was over 90%. In data set [3] (in Brassica oleracea, 72 h), this compound had a mortality at 0.333 ppm of 65% and a mortality at 1 ppm of 100%. The mortality at 1 ppm in data set [3] (setting [4]) is over 90%.

As a reminder, the mortality is the percentage killed.
